These results are taken from US12357610B2, “Aryl-substituted acetamide and pyrrolidin-2-one derivatives and their use for the treatment of seizures” (University of Houston System, priority 2017, dated 2025).

Molecules are shown by their SMILES.

For this assay, the system named is convulsions in animal models of medically refractory epilepsy. As to the kind of experiment: rodent models of medically refractory epilepsy (FIG. 12). The format is in vivo. As to conditions: multiple rodent models.

On to `CCC1(c2ccccc2)CCNC1=O` (racemic) [3-ethyl-3-phenylpyrrolidin-2-one], for which the “activity in preventing convulsions in animal models of medically refractory epilepsy” value was “active”.
